According to PubChem BioAssay AID298 (DTP/NCI, 2004):
Records with an inconclusive call do not appear.

System: MX-1 breast xenograft, intrarenal, nude mice, tumor weight
Assay: NCI In Vivo Anticancer Drug Screen. Data for tumor model Human Mammary Carcinoma MX-1 Xenograft (intrarenal inoculation) in NU/NU BALB/C (nude) mice
Settings: endpoint: mean tumor weight change, higher = larger tumour
Summary of the method: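 T/C readout: treated-group measurement over vehicle-control measurement, using tumor size or survival in tumor-bearing mice.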

[1] = dose: 100.0 mg/kg/injection, schedule: Q04DX003 (sc), vehicle: saline
[2] = dose: 200.0 mg/kg/injection, schedule: Q04DX003 (sc), vehicle: saline
[3] = dose: 400.0 mg/kg/injection, schedule: Q04DX003 (sc), vehicle: saline

In the case of `CCOC(=O)NC1=C(N2CC2)C(=O)C(NC(=O)OCC)=C(N2CC2)C1=O`, the T/C (dose: 1.56 mg/kg/injection, schedule: Q01DX010 (sc), vehicle: saline) is reported as 45 % of control, the T/C (dose: 3.13 mg/kg/injection, schedule: Q01DX010 (sc), vehicle: saline) is reported as 13 % of control and the T/C (dose: 6.25 mg/kg/injection, schedule: Q01DX010 (sc), vehicle: saline) is reported as -75 % of control.

For `Nc1ncn(C2OC(CO)C(O)C2O)c(=O)n1` (centres undefined), the T/C (dose: 0.19 mg/kg/injection, schedule: Q01DX010 (ip), vehicle: saline) was 307 % of control, the T/C (dose: 0.19 mg/kg/injection, schedule: Q01DX010 (sc), vehicle: saline) was 83 % of control and the T/C (dose: 0.38 mg/kg/injection, schedule: Q01DX010 (ip), vehicle: saline) was 261 % of control. The T/C (dose: 0.63 mg/kg/injection, schedule: Q04DX003 (ip), vehicle: saline) was 73 % of control, the T/C (dose: 0.63 mg/kg/injection, schedule: Q04DX003 (sc), vehicle: saline) was 22 % of control and the T/C (dose: 0.75 mg/kg/injection, schedule: Q01DX010 (ip), vehicle: saline) was 86 % of control. The T/C (dose: 0.75 mg/kg/injection, schedule: Q01DX010 (sc), vehicle: saline) was 69 % of control, the T/C (dose: 1.25 mg/kg/injection, schedule: Q04DX003 (ip), vehicle: saline) was 91 % of control and the T/C (dose: 1.25 mg/kg/injection, schedule: Q04DX003 (sc), vehicle: saline) was 40 % of control. For the same compound, the T/C (dose: 1.5 mg/kg/injection, schedule: Q01DX010 (ip), vehicle: saline) was 249 % of control, the T/C (dose: 2.5 mg/kg/injection, schedule: Q04DX003 (ip), vehicle: saline) was 94 % of control and the T/C (dose: 2.5 mg/kg/injection, schedule: Q04DX003 (sc), vehicle: saline) was 36 % of control. The T/C (dose: 5.0 mg/kg/injection, schedule: Q04DX003 (ip), vehicle: saline) was 31 % of control, the T/C (dose: 10.0 mg/kg/injection, schedule: Q04DX003 (sc), vehicle: saline) was 23 % of control and the T/C [1] was 15 % of control. For the same compound, the T/C (dose: 150.0 mg/kg/injection, schedule: Q04DX003 (sc), vehicle: saline) was 21 % of control, the T/C [2] was 15 % of control and the T/C (dose: 300.0 mg/kg/injection, schedule: Q04DX003 (sc), vehicle: saline) was 8 % of control. For the same compound, the T/C [3] was 4 % of control, the T/C (dose: 600.0 mg/kg/injection, schedule: Q04DX003 (sc), vehicle: saline) was -45 % of control and the T/C (dose: 800.0 mg/kg/injection, schedule: Q04DX003 (sc), vehicle: saline) was -50 % of control. The T/C (dose: 1200.0 mg/kg/injection, schedule: Q04DX003 (sc), vehicle: saline) was -43 % of control.

With `NC(CNC(=O)CBr)C(=O)O` (centres undefined) the T/C (dose: 37.5 mg/kg/injection, schedule: Q04DX003 (sc), vehicle: water) was 82 % of control and the T/C (dose: 150.0 mg/kg/injection, schedule: Q04DX003 (sc), vehicle: water) was 54 % of control.

`C[n+]1c(/C=N/NC(N)=S)ccc2ccccc21` was tested, and the T/C (dose: 300.0 mg/kg/injection, schedule: Q04DX003 (sc), vehicle: saline with Tween-80) was 78 % of control.

With `O=C(O)[C@H](Cc1ccccc1)N1C(=O)c2ccccc2C1=O` the T/C (dose: 150.0 mg/kg/injection, schedule: Q04DX003 (ip), vehicle: DMSO) was 77 % of control, the T/C (dose: 300.0 mg/kg/injection, schedule: Q04DX003 (ip), vehicle: DMSO) was 60 % of control and the T/C (dose: 600.0 mg/kg/injection, schedule: Q04DX003 (ip), vehicle: DMSO) was 33 % of control.

For `COc1cccc2c1C(=N)c1c(O)c3c(c(O)c1C2=O)C[C@@](O)(C(C)=O)C[C@@H]3OC1CC(N)C(O)C(C)O1` (some centres undefined), the T/C (dose: 4.0 mg/kg/injection, schedule: Q01DX010 (sc), vehicle: water) was 51 % of control, the T/C (dose: 8.0 mg/kg/injection, schedule: Q01DX010 (sc), vehicle: water) was 56 % of control and the T/C (dose: 16.0 mg/kg/injection, schedule: Q01DX010 (sc), vehicle: water) was 56 % of control.

`CS(=O)(=O)c1ncc(Br)cn1` was tested, and the T/C (dose: 25.0 mg/kg/injection, schedule: Q01DX010 (sc), vehicle: distilled water + Tween-80) was 98 % of control and the T/C (dose: 200.0 mg/kg/injection, schedule: Q01DX010 (sc), vehicle: distilled water + Tween-80) was 118 % of control.

`Brc1c(NC2=NCCN2)ccc2nccnc12` was tested, and the T/C (dose: 50.0 mg/kg/injection, schedule: Q04DX003 (sc), vehicle: saline) was 69 % of control, the T/C [1] was 57 % of control and the T/C [2] was 41 % of control. The T/C [3] was 23 % of control.

With `c1ccc(-c2cc3cc4ccccc4cn3c2)cc1` the T/C (dose: 150.0 mg/kg/injection, schedule: Q04DX003 (ip), vehicle: saline with Tween-80) was 61 % of control, the T/C (dose: 300.0 mg/kg/injection, schedule: Q04DX003 (ip), vehicle: saline with Tween-80) was 108 % of control and the T/C (dose: 600.0 mg/kg/injection, schedule: Q04DX003 (ip), vehicle: saline with Tween-80) was 81 % of control. For the same compound, the T/C (dose: 1200.0 mg/kg/injection, schedule: Q04DX003 (ip), vehicle: saline with Tween-80) was 101 % of control.
